Data reported in patent US20260283997A1, “METHODS FOR INHIBITING RESISTANCE TO IMMUNE BLOCKADE INHIBITOR THERAPY” (H. LEE MOFFITT CANCER CENTER AND RESEARCH INSTITUTE, INC., priority 2023, published 2026).
Entries after “also recorded” stand apart in the source; their conditions may differ.

Assays:
[1] = tested on: stage IIIB through IV melanoma; details: adjuvant, cited from earlier work; for 12-month RFS rate: stage IIIB through IV melanoma
[2] = tested on: stage III melanoma; details: cited from earlier work
[3] = tested on: antigen presentation from DCs to CD4+ T cells; experiment: DC antigen presentation to OT-II CD4+ T cells, [3H]-thymidine incorporation; assay type: cell-based, mouse; details: for MDSC inhibition of antigen presentation in the presence of iNOS inhibitor: MDSCs derived from B16 melanoma, OVA peptide stimulus
Protocol: For space constraints only the OVA peptide stimulus is depicted in B and C.
The effects of NO on DC function using transgenic mice were evaluated that express a T cell receptor (TCR) specific for a defined antigen, namely OVA. […] Levels of SNAP or other NO donors such as deta-NONOate can be adjusted to mimic the physiological concentration of NO within MDSCs and be utilized to directly measure binding of tetramers to the TCR complex. To simulate a real world scenario of antigen expressed naturally by the B16 tumors as advised by the reviewers, We can utilize transgenic mice that express a T cell receptor (TCR) specific for the Tyrosinase-Related Protein 1 (Trp-1).

[4] = tested on: B16 melanoma cells; experiment: Cytotoxicity of PMEL CD8 T cells against gp-100 coated B16 cells, flow cytometry; assay type: cell-based; details: 100 μM; p=0.02
Protocol: Cytoxicity was measured via flow cytometry with CellTrace™ Far Red (B16 cells) and a live/dead marker (Zombie™ Green).

[5] = tested on: STAT1; experiment: Nitrated STAT1 by immunoblot after nitrated tyrosine immunoprecipitation in normal donor PBMC; assay type: cell-based; details: normal donor human PBMC
From the text: An increased [nSTAT1]/[STAT1] ratio can be associated with resistance to anti-PD-1 therapy. Unfractionated PBMC samples are utilized for the mass spectrometry experiments as they are routinely collected from patients and with the expectation of STAT1 having increased nitration (FIG. 4). A second aliquot of PBMCs from the patients can be stimulated in parallel with IFN and subsequent downstream activation determined via measurement of phosphorylated STAT1. Activation of STAT1 can be measured by intracellular staining for activated (i.e. phosphorylated) STAT1 using flow cytometry. IFN responsiveness decreases by ~30% in metastatic cancer patients. There is an inverse relationship between the levels of pSTAT1 and levels of nitrated STAT1. As a control, STAT1 nitration can be measured in normal donor PBMCs treated with SNAP via immunoblot (FIG. 13). As such, PBMCs from melanoma patients can be compared to normal donors. […] Additional nitrated proteins can be quantified in the future via LC-MRM (Liquid Chromatography, multiple reaction monitoring) including the targets outlined in the introductory material (assay requires <200,000 cells); and can expand the list of which nitration events are important for response to anti-PD1 therapy in case STAT1 is not the only important target.

[6] = tested on: T cells; experiment: T cell proliferation after tetanus toxoid antigen presentation from human DC in PBMC sample; assay type: cell-based; details: tetanus toxoid 1 ug/ul
[7] = tested on: STAT1; experiment: pSTAT1 flow cytometry of normal donor PBMCs stimulated with interferon-alpha; assay type: cell-based, human
Protocol: FIGS. 20A, 20B, and 20C show Interferon-alpha stimulation of normal donors PBMCs.
(§1) Flow cytometry and mass spectrometry analyses. Flow cytometric analysis of pSTAT1 and liquid chromatography-tandem mass spectrometry (LC-MS-MS) analysis of nitrated STAT1 (nSTAT1) were conducted on all samples. For flow cytometry studies, frozen PBMCs were thawed at 37° C., washed with culturing media, and allowed to rest overnight in complete media at 5% CO2 at 37° C. PBMCs were stimulated with interferon-α (Miltenyi Biotec, Cambridge, MA) at 0, 10^2 U/mL, and 10^4 U/mL and incubated for 15 minutes in media.
(§2) The live/dead marker Zombie NIR (BioLegend, San Diego, CA) was used before permeabilization to distinguish live cells. The samples were permeabilized using the FIX & PERM Cell Permeabilization Kit with methanol modification (Fisher Scientific, Hampton, MA) and fixed at −20° C. for a minimum of 2 hours. pSTAT1 was detected by a pSTAT1 antibody (AF488; BD Biosciences, San Jose, CA). Flow cytometry data were collected either on Canto or LSRII flow cytometers (BD Biosciences, San Jose, CA), and data were analyzed in FCS Express (De Novo Software, Pasadena, CA). Measurement of patient-derived PBMCs for nSTAT1 and native STAT1 via LC-MS-MS SRM experiments was performed. […]

[8] = tested on: B16 melanoma; experiment: PD-1 refractory B16 melanoma model; assay type: in vivo, mouse
From the text: NCX-4016 is a nitroaspirin and inhibits the nitric oxide synthase via a negative feedback mechanism. These compounds are available for clinical trial use, and have a toxicity profile that is favorable for evaluation in patients with advanced malignancies. I predict nitroaspirin compounds in combination with anti-PD-1 therapy can rescue the ability to stimulate CD4^+ T cells and decrease tumor growth. […] We can use nitroaspirin alone and along with anti-PD-1 in therapeutically achievable doses in the murine B16 melanoma model to measure tumor growth curves and obtain specimens for analyses.

[9] = tested on: resected stages IIIC/IV melanoma; experiment: Phase II trial of adjuvant ipilimumab with a peptide vaccine, clinical outcome; assay type: in vivo, human
Protocol: Patient samples. […] Peripheral blood leukocytes were collected before initiation of ipilimumab treatment and at approximately 150 days after the first treatment. PBMCs were available and were de-identified before inclusion in our current study.
Statistical analyses. We conducted statistical analyses to determine whether there is a relationship between levels of pSTAT1, nSTAT1, and RFS. Survival outcome was summarized using Kaplan-Meier method and log-rank test was performed to evaluate the association of survival outcome with pSTAT1 and nSTAT1 levels dichotomized by the median-split method. […] Levene's F-test for the homogeneity of variance was used to compare variance of pSTAT1 level among patients with different RFS rates. Patients were also stratified using the median-split method for a survival comparison analysis of [nSTAT1]post-[nSTAT1]pre with ipilimumab treatment. […] A two-sided P value of <0.05 was considered statistically significant. Treatment outcome is reported at the end of the follow up period for the parent trial (5 years).
Patient demographics. Pre- and post-therapy PBMCs were available from 35 patients with resected stages IIIC/IV melanoma.

[10] = tested on: STAT1; experiment: pSTAT1 flow cytometry of patient PBMCs pre versus post ipilimumab; assay type: in vivo, human
Protocol: FIGS. 22A, 22B, and 22C show the paired pSTAT1 level pre versus post ipilimumab treatment without (FIG. 22A) Interferon-alpha stimulation, after (FIG. 22B) 10^2 U/mL Interferon-alpha stimulation, and (FIG. 22C) 10^4 U/mL Interferon-alpha stimulation.
as §1
as §2, with “CA).” for “CA). Measurement of patient-derived PBMCs for nSTAT1 and native STAT1 via LC-MS-MS SRM experiments was performed.”

[11] = n = 35, end of follow up period (5 years)

## nivolumab: Monoclonal antibody against PD-1
[1]
  12-month RFS rate: 70.5%
  toxicity compared to ipilimumab: significantly decreased toxicity

## pembrolizumab: Monoclonal antibody against PD-1
[2]
  efficacy compared to interferon-α or ipilimumab: increased efficacy

## COC(=O)[C@@H](N)CCCNC(=N)N[N+](=O)[O-] [L-NAME, L-nitroarginine methyl ester]
[3]
  MDSC inhibition of antigen presentation in the presence of iNOS inhibitor: this effect was abrogated

## CC(=O)NC(C(=O)O)C(C)(C)SN=O (racemic) [SNAP, S-Nitroso-N-Acetyl-D,L-Penicillamine]
[3]; nitric oxide donor SNAP, DCs and CD4+ T cells ratio 1:4 from OT-II mouse
  DC antigen presentation to CD4+ T cells (proliferation of OT-II T cells): inhibit DC antigen presentation to CD4+ T cells
[4]
  cytotoxicity of target B16 melanoma cells by effector PMEL CD8 T cells: reduced
[5]
  levels of nitrated STAT1: elevated levels of nitrated STAT1
[6]
  proliferation of T cells after antigen presentation of tetanus toxoid: decreases proliferation of T cells

## interferon-α
[7]
  pSTAT1 levels with increasing interferon levels: concentration-dependent increase in pSTAT1 levels
[7]; 15 minutes of treatment
  concentration showing near-maximum phosphorylation of STAT1: 500 U/ml

## CC(=O)Oc1ccccc1C(=O)Oc1cccc(CO[N+](=O)[O-])c1 [NCX-4016]
[3]
  MDSC inhibition of antigen presentation in the presence of iNOS inhibitor: this effect was abrogated
[8]; B16 melanoma model
  iNOS expression with iNOS inhibitor in-vivo: iNOS expression is decreased
[8]; PD-1 refractory B16 melanoma model, combination with anti-PD-1
  efficacy in combination with anti-PD1 blockade: more efficacious than either treatment alone; also recorded: increases the efficacy of anti-PD1 blockade

## ipilimumab: Monoclonal antibody against CTLA-4
[9]; Log rank P-value=0.96
  RFS, 3 mg/kg vs 10 mg/kg: no statistical significant differences in RFS
[9]; [11]
  Treatment outcome AWD (alive with disease), Percentage: 6%
  Treatment outcome DOD (died of disease), Percentage: 17%
  Treatment outcome NED (no evidence of disease), Percentage: 77%
[10]; 10 mg/kg cohort, t-test, p<0.01
  levels of STAT1 pre versus post treatment: statistically significant increase
[10]; 150 days post treatment
  changes in pSTAT1 between the 10 mg/kg and 3 mg/kg cohorts: no statistically significant changes in pSTAT1
[1]
  12-month RFS rate: 60.8%
